From patent publication US20120122991A1, “METHOD FOR TREATING CANCER BY INCREASING AMP-ACTIVATED KINASE ACTIVITY” (Dana-Farber Cancer Institute, Inc., priority 2003, published 2012)

Key:
[1] = test system: AMPK; assay: Immunoblot of phospho-Thr172 AMPK and phospho-Ser79 ACC in MEFs; assay type: cell-based, mouse; details: 2 mM AICAR for 2 h
Method: FIG. 3a: Littermate MEFs of the indicated LKB1 genotypes were left untreated (NT) or treated with 0.1 mM H2O2 for 20 mins or 2 mM AICAR for 2 h. Total cell extracts were immunoblotted for phospho-Thr 172 AMPK or phospho Ser79 ACC, as well as for total AMPK and LKB1. FIG. 3b: An immortalized LKB1-deficient MEF cell line was reconstituted with human (hu) or mouse (ms) WT or KD LKB1 expressing retroviruses. The asterisk (*) represents a background band that serves as a loading control.
(§1) FIG. 6A: Subconfluent cycling littermate-matched primary MEFs of the indicated genotype were left untreated (NT) or were treated with 2 mM AICAR for 2 h. Total cell extracts were immunoblotted for phospho-Thr172 AMPK (P-AMPK), phospho Ser79 ACC (P-ACC), phospho-Thr389 S6K1 (P-S6K1), phospho-Ser9 GSK-3b (P-GSK-3), and phospho-Ser235/236 S6 ribosomal protein (P-S6). FIG. 6B: An immortalized LKB1−/− MEF cell line was reconstituted with vector (v), wild-type (wt) or kinase-dead (kd) human LKB1-expressing retroviruses. Cells were treated as in FIG. 6A. eIF4E was used as a loading control. *represents a cross-reactive band with the anti-LKB1 antisera as characterized previously (Shaw et al. (2004) Proc. Natl. Acad. Sci. USA 101, 3329-3335). FIG. 6C: Endogenous 5′ cap complexes were isolated from LKB1 primary MEFs as in A. 10% of the total cell lysate is shown in the left panels; cap complexes purified on 7-methyl sepharose are shown in right panels. Each were immunoblotted with total 4E-BP1 and eIF4E antibodies. eIF4E is shown as a loading control. FIG. 6D: Hela cells (which are LKB1-deficient) were transiently transfected with vector, FLAG-tagged wild-type, or kinase-dead LKB1 along with an HA-tagged S6K1 or an HA-tagged 4E-BP1 construct, then treated where indicated with 2 mM AICAR for 2 h. S6K1-immunoprecipitates were immunoblotted for activating phosphorylation of S6K1 as before, as well with anti-HA to control for levels. Lysates were immunoblotted with anti-FLAG to detect levels of LKB1 and with anti-HA to detect phosphorylation induced changes in 4E-BP1 mobility on SDS-PAGE.
Kinase Assays and Cellular Analysis: AMPK kinase activity was measured using the SAMS peptide as previously described (7). LKB1 phosphorylation of AMPK was carried out in kinase buffer (50 mM Tris pH 7.5, 10 mM MgCl2, 1 mM DTT, 100 μM ATP) for 20 mins at 30° C. For immunopreciptations of active LKB1 kinase, Flag-tagged LKB1 was co-transfected with an equimolar amount of STRAD expression plasmid into HT1080 cells and immunoprecipitated using M2-agarose (Sigma) 24 h post-transfection in NP40 lysis buffer26. Before kinase assays, immunoprecipitated LKB1 was washed 3× in lysis buffer then 2× in kinase buffer. Soluble MBP-AMPK was added at 5 μg per kinase reaction. […]

[2] = test system: mTOR signaling; assay: Immunoblot and cap-complex analysis of mTOR signaling (S6K1, S6, 4E-BP1, GSK-3) in MEFs; assay type: cell-based, mouse
Method: as §1
FIGS. 8A and 8B: Littermate matched LKB1- or TSC2-deficient MEFs were compared to wild-type MEFs in their response to a number of stress stimuli known to inhibit mTOR signaling (wild-type cells denoted +, −/− cells simply−). mTOR signaling was examined by immunoblotting for phospho-S6 as in FIG. 6. Activation of Akt and Erk were examined using their specific activation state phospho-specific antibodies (Ser473 for Akt, Thr202/Tyr204 for Erk). As before, eIF4E is used as a loading control. All MEFs were serum-deprived in DMEM alone for 24 h. Indicated samples were then placed in fresh media containing 10% serum, with or without […] rapamycin or 2 mM AICAR, all for 90 min. Amino acid deprivation (-AA) was performed by placing the serum-starved cells into D-PBS with 10% dialyzed serum for 90 min. […] Cells were placed in normal media, glucose free media with 10% dialyzed serum, or glucose-free media with 10% dialyzed serum containing 20 nM rapamycin for 6 or 24 h as indicated. LKB1 genotype indicated at bottom. eIF4E is used as a loading control. FIG. 8D: Cells were treated for 24 h as in FIG. 8C, and viability was quantified by MTT assays performed in triplicate on cells of the indicated genotypes. Cell death is expressed as a percentage of the untreated controls.
Cells were cultured and retrovirally infected as previously described (Shaw et al. (2004), Proc. Natl. Acad. Sci. USA 101:3329-3335). […] Cells were serum-starved in DMEM without serum 14 h post-transfection, then 8 h later the media was replaced with fresh DMEM with 10% FBS or DMEM with 10% FBS and 2 mM AICAR. For the MEF experiments in FIG. 6: cells were plated at 1×10^6 cells/10 cm dish, then the next day the media was replaced with fresh DMEM with 10% FBS or DMEM with 10% FBS and 2 mM AICAR. For the MEF experiments in FIG. 8A,B: 1×10^6 cells of each genotype were plated and the next day serum-starved for 24 h. Cells were either lysed as such or their media replaced with fresh DMEM with 10% FBS, DMEM with 10% FBS and 2 mM AICAR, DMEM with 10% FBS and 20 nM rapamycin, or D-PBS with 10% dialyzed FBS for 90 mins.

Compound: NC(=O)c1ncn([C@@H]2O[C@H](CO)[C@@H](O)[C@H]2O)c1N [AICAR, 5-aminoimidazole-4-carboxamide 1-β-D-ribofuranoside]
- Thr172 phosphorylation of AMPK ([1]; LKB1 null MEFs): complete loss of Thr172 phosphorylation
- phosphorylation of ACC (Ser79) ([1]; LKB1 null MEFs): nearly abolished
- AMPK activation ([1]; Lkb1-deficient fibroblasts): severely attenuated
- AMPK activation ([1]; wild-type MEFs): activated
- S6K1 activity ([2]; Lkb1-/- MEFs, serum-starved 24 h, 10% serum with 2 mM AICAR for 90 min): failed to down-regulate S6K1 activity
- hypophosphorylated 4E-BP1 in total cell lysates ([2]; Lkb1-deficient cells, AICAR treatment): near absence of hypophosphorylated 4E-BP1
- levels of active S6K1 ([2]; Lkb1-deficient fibroblasts, 2 mM AICAR for 2 h): remained high
- growth factor signaling to GSK-3 ([2]; MEFs, 2 mM AICAR for 2 h): unaffected
- S6K1 activity ([2]; wild-type MEFs, 2 mM AICAR for 2 h): inhibited
- level of hypophosphorylated 4E-BP1 ([2]; wild-type MEFs, AICAR treatment): significantly increases
- 4E-BP1 association with the cap complex ([2]; wild-type MEFs, AICAR treatment, 7-methyl GTP sepharose): increased 4E-BP1 association with the cap complex
